Experimental data reported in US11759439B2, “Bromhexine for the treatment of pain” (priority 2017, dated 2023).
Entries after “also recorded” stand apart in the source; their conditions may differ.

Tests used:
rodents = details: cited from earlier work
humans = details: cited from earlier work
[1] = biological target: T1, tetrodotoxin-resistant (TTXr) Na+ currents encoded by Nav1.8 (Homo sapiens, UniProt Q9Y5Y9); details: preference for TTXr Na+ currents encoded by Nav1.8; cited from earlier work
T1 construct: host or cells: sensory neurons

[2] = test system: patient with neuropathic pain in both feet; assay: Case report 2: topical bromhexine cream, NRS pain score, neuropathic forefoot pain; assay type: in vivo, human; details: for effect of earlier treatment (patient history): before bromhexine
Text: (§1) In the following Examples a dermal topical cream was used comprising 20% (w/w) bromhexine HCl (10 g), medium-chain triglycerides (MCTs; Triglycerida Saturata Medium Migloyol® 812N, FAGRON GmbH & Co. KG, Cas No. 73398-61-5) (5 g), Linola Creme ad 50 g (Dr. August Wolff GmbH & Co. KG Arzneimittel, PZN 02489672; emulsion O/W containing unsaturated fatty acids (C182), carbomer 980, decyloleat, glycerol monosterate, ceteareth-3, phenoxyethanol, stearic acid, trometamol, wax bleached and purified water), unless stated otherwise. The dermal topical cream was prepared by mixing bromhexine with the MCTs and adding the Linola Creme to obtain a homogenous cream. We chose a dermal topical cream rather than a gel, because a cream is better absorbed by the skin. Bromhexine was fast and easy to formulate into a topical pharmaceutical composition, particularly into a homogenous cream.
(§2) The dermal topical cream was administered (thinly) to the skin in the affected area and a beneficial effect was typically noticed within 30 min. The effect lasted for about 4 to 12 hours, typically 6 hours. For long term treatment the cream was administered 2 to 3 times per day. In some cases a once daily administration was sufficient.
(§3) In all case reports shown below, the intensity of pain is reported with the NRS-Score (NRS=numeric rating scale) on which the patient rates their pain between ‘0=no pain’ and ‘10=unbearable pain’. The NRS-Score is the standard of pain evaluation in international publications and according to the literature an intensity of NRS 3 or lower usually is felt as ‘tolerable’ by patients with chronic pain.
The […] presented neuropathic pain in both feet and felt “running on coals” and as “gripped in a vice”, walking or gardening were almost impossible. It could not be explained in orthopaedic terms and no polyneuropathy was detected on neurographic investigation. […] Gabapentin, opiates and topical lidocaine were not helpful. After topical bromhexine the pain of NRS 5 during the heel-to-toe roll and the forefoot touch sensitivity decreased to NRS 1 within 15 min and disappeared after 30 min for hours (FIG. 6, last columns, “neuropathic forefoot pain”).

[3] = test system: patient with severe fibromyalgia pain; assay: Case report 10: topical bromhexine, severe fibromyalgia; assay type: in vivo, human; details: 25 min after topical bromhexine
Text: as §1, §2
A patient with severe fibromyalgia pain presented an exacerbation with painful hand/finger movements and swelling. […] The patient was surprised about the reduced swelling, the possibility of the closure of fist and a reduction of the functional impairment during movement. Closure of the fist was only possible to a half-closed position without (or almost no) pain before treatment (FIG. 4C, top panel).

[4] = test system: patient with chronic severe pain syndrome of both hands and arms from unclear origin; assay: Case report 8: topical bromhexine, chronic unclear severe pain syndrome of hands and arms; assay type: in vivo, human
Text: as §1, §2
Further the extent of possible finger spreading was much better in their left hand, which was treated with the bromhexine compared to their untreated right hand (FIG. 1 C). Particularly the extent of the “pain limited” finger spreading of their bromhexine treated left hand hand compared to their untreated right hand increased. In their untreated right hand pain started immediately with the first movement. Further, the extent of possible free of pain elbow rotation 20 min after bromhexine in their left treated elbow increased (FIG. 1D, bottom panel). No movement free of pain was possible in their right elbow (FIG. 1D, top panel).

[5] = test system: patient with complex regional pain syndrome (CRPS); assay: Case report 7: topical bromhexine, complex regional pain syndrome (CRPS); assay type: in vivo, human; details: 30-45 min following the treatment
Text: as §1
as §2, with “sufficient. […]” for “sufficient.”

mucus = details: cited from earlier work
[6] = test system: patient with osteoarthritis in both knees and chronic postsurgical pain (CPSP) after knee replacement; assay: Case report 1: topical bromhexine cream, NRS pain score, knees; assay type: in vivo, human
Text: as §1, §2, §3
A patient suffered from osteoarthritis in both knees and had received knee replacement followed by chronic postsurgical pain (CPSP) in one of it. […] Starting on a pain level of NRS 7, 30 min after topical bromhexine the pain decreased to NRS 6 and to NRS 4 within 2 hours. […] On another occasion the pain was reduced in both knees from NRS 6 before bromhexine treatment to NRS 3 after 2 hours.

[7] = in vivo; cited from earlier work
[8] = test system: patient with severe chronic low back pain and S1 radiculopathy; assay: Case report 5: topical bromhexine, low back pain (S1-radiculopathy); assay type: in vivo, human
Text: as §1
as §2, with “sufficient. […]” for “sufficient.”

[9] = test system: patient with chronic pain caused by osteoarthritis of the fingers; assay: Case report 9: topical bromhexine, osteoarthritis of the fingers; assay type: in vivo, human; details: 15 min after topical bromhexine; before: incomplete and very painful
Text: as §1, §2
A patient with chronic pain caused by osteoarthritis of the fingers for many years. Forming a fist was incomplete and very painful. […]

treated patients = assay: Topical bromhexine cream in pain patients: onset, duration, side effects (all cases); assay type: in vivo, human
Text: as §1
as §2, with “sufficient. […]” for “sufficient.”

[10] = test system: patient with painful left knee after meniscus surgery; assay: Case report 3: topical bromhexine, NRS pain score, knee pain after meniscus surgery; assay type: in vivo, human; details: after bromhexine treatment; NRS 8 before; time not stated
Text: as §1
as §2, with “sufficient. […]” for “sufficient.”

[11] = test system: patient with rheumatoid arthritis and fibromyalgia; assay: Case report 6: topical bromhexine cream, rheumatoid arthritis and fibromyalgia, hands; assay type: in vivo, human
Text: as §1, §2
A rheumatoid arthritis and fibromyalgia for many years developed a chronic pain disease in a person. Hands were distorted painfully and movements like the closure of fist were only possible very slowly and the movement was painful and incomplete. Self-supply was threatened. The medical options for pain therapy were limited due to long-term side effects on stomach, kidney, cardiovascular system and liver by nonsteroidal anti-rheumatic drugs (NSAIDS) or coxibes as well as the risk of tumbling caused by central nervous effects as sedation and dizziness. Bromhexine cream was applied at both hands. Already 2 min later the patients started to move both hands and ‘searched their pain’ because it was improved and movements could be performed more easily, quickly and complete. […]

[12] = test system: patient with fibromyalgia pain; assay: Case report 11: topical bromhexine, fibromyalgia pain of the hands; assay type: in vivo, human
Text: as §1
as §2, with “sufficient. […]” for “sufficient.”

[13] = test system: patient with pain in right hand and wrist due to osteoarthritis; assay: Case report 3: topical bromhexine cream, NRS pain score, osteoarthritis of hand and wrist; assay type: in vivo, human; details: within 2 hours after topical bromhexine cream; NRS 6 before treatment
Text: as §1
as §2, with “sufficient. […]” for “sufficient.”

[14] = test system: patient with postherpetic neuralgia; assay: Case report 4: topical bromhexine, postherpetic neuralgia; assay type: in vivo, human; details: for pain in the treated area (NRS): untreated abdominal area unchanged
Text: as §1, §2, §3
A patient contracted an infection with the herpes zoster virus followed by skin eruptions 3 years ago. In the affected area of the right thorax they developed a dynamic allodynia and pinprick hyperalgesia and hypersensitivity to cold and airbrush which spread out circular to the abdominal region. Only the dorsal part of the area was treated with bromhexine. […]

Compound: Nc1c(Br)cc(Br)cc1CN[C@H]1CC[C@H](O)CC1 [Ambroxol]
- pain-related behavior (rodents): reduce pain-related behavior
- pain (humans): alleviate pain
- Na+ currents in sensory neurons [1]: block Na+ currents

Compound: NCC1(CC(=O)O)CCCCC1 [Gabapentin]
- effect of earlier treatment (patient history) [2]: not helpful

Compound: CN(Cc1cc(Br)cc(Br)c1N)C1CCCCC1 [bromhexine, 2,4-dibromo-6-[[cyclohexyl(methyl)amino]methyl]aniline]
- functional impairment of walking ([2]; 8 hours later): without recurrence
- pain level (NRS) ([2]; 8 hours later, NRS 5 before): 2 NRS
- pain during heel-to-toe roll and forefoot touch sensitivity ([2]; after 30 min, for hours, NRS 5 before): disappeared
- pain level (NRS) during heel-to-toe roll and forefoot touch sensitivity ([2]; within 15 min after topical bromhexine, NRS 5 before): 1 NRS
- swelling of the treated right hand [3]: strongly reduced
- closure of the fist ([3]; before: only half-closed without pain): completely possible without pain; also recorded: closed completely and without pain
- movement of the thumb to the palm ([3]; impossible before): free of pain; also recorded: not any longer limited by pain
- swelling in the treated area ([4]; 20 min after bromhexine): reduction of swelling
- extent of possible free of pain elbow rotation ([4]; 20 min after bromhexine, left treated elbow): increased
- reddening of the treated left hand ([4]; 20 min following topical bromhexine, right hand untreated): reduction of reddening
- pain and feeling of swelling and tension ([4]; 20 min following topical bromhexine, treated left hand): impressive reduction
- movements of the left hand and arm ([4]; about 30 min after bromhexine, none free of pain in untreated right arm): able to perform movements free of pain; also recorded: diverse possible movements free of pain
- extent of possible finger spreading ([4]; treated left hand compared to untreated right hand, 20 min): much better
- motions of the hand [5]: without stabbing sensations
- burning pain (NRS) ([5]; 8 NRS before): 3 NRS
- secretion volume (mucus; in vivo): increases
- viscosity of the sputum (mucus; in vivo): decreases
- side-effects (mucus; known oral use): very few side-effects
- pain level (NRS) ([6]; 30 min after topical bromhexine, starting pain level NRS 7, knee with CPSP): 6 NRS
- pain level (NRS) ([6]; another occasion, both knees, NRS 6 before bromhexine, after 2 hours): 3 NRS
- pain level (NRS) ([6]; within 2 hours after topical bromhexine, starting pain level NRS 7, knee with CPSP): 4 NRS
- bioavailability [7]: relatively low
- hepatic first-pass effect [7]: up to 80%
- passage of the blood-brain barrier [7]: pass the blood-brain barrier
- stabbing sensations ([8]; after bromhexine): reduced
- pain level (NRS) ([8]; within 30 minutes, NRS 6 before bromhexine): about 4
- closure of the fist [9]: closed completely and with reduced pain; also recorded: performed completely and with reduced pain
- side effects (treated patients): None of the treated patients reported side effects
- pain intensity (NRS) [10]: 4.5 NRS
- closure of fist ([11]; 5 min after topical bromhexine, both hands): improved notable in motion sequence; also recorded: improved notably in motion sequence
- time to first improvement of pain and movements ([11]; after application of bromhexine cream at both hands): 2 min
- duration of the improvement ([11]; in vivo): several hours
- stabbing ([12]; 30 min following topical bromhexine): disappeared
- pain in both hands with tension, stiffness, swelling and stabbing ([12]; 30 min following topical bromhexine to the hands, NRS 5 before): disappeared broadly
- pain (NRS) [13]: 0.5 NRS
- pain in the treated area (NRS) ([14]; after 15 min): 4 NRS
- pain in the treated area (NRS) ([14]; after 30 min): 1 NRS
- tingling sensation and subjective hypersensitivity ([14]; after the first few minutes, treated dorsal area): disappeared completely

Compound: CCN(CC)CC(=O)Nc1c(C)cccc1C [lidocaine]
- effect of earlier treatment (patient history) [2]: not helpful
- effect of earlier treatment (patient history) ([6]; topical plasters, before bromhexine): not been helpful
